Test results from the NIST ThermoML archive (doi:10.1021/je3011979).
± gives the expanded uncertainty stated by the source.

Key:
[1] = xn = mol fraction of the nth substance listed; conditions: 101 kPa, Liquid, Vibrating tube method
[2] = excess molar enthalpy (molar enthalpy of mixing); xn = mol fraction of the nth substance listed; conditions: 101 kPa, Liquid, Calvet calorimetry

CCCOC(C)=O [propyl ethanoate] + CCCCCC
Conditions	excess molar enthalpy [kcal/mol]	mass density [kg/m3]
[1], 291.15 K, x1 = 0.012	–	663.4 ± 0.3
[1], 291.15 K, x1 = 0.0372	–	668 ± 0.3
[1], 291.15 K, x1 = 0.0924	–	678.5 ± 0.3
[1], 291.15 K, x1 = 0.1648	–	692.7 ± 0.3
[1], 291.15 K, x1 = 0.2357	–	707 ± 0.3
[1], 291.15 K, x1 = 0.3085	–	722.2 ± 0.3
[1], 291.15 K, x1 = 0.3804	–	737.7 ± 0.3
[1], 291.15 K, x1 = 0.442	–	751.4 ± 0.3
[1], 291.15 K, x1 = 0.5117	–	767.2 ± 0.3
[1], 291.15 K, x1 = 0.5781	–	782.6 ± 0.3
[1], 291.15 K, x1 = 0.64	–	797.3 ± 0.3
[1], 291.15 K, x1 = 0.702	–	812.3 ± 0.3
[1], 291.15 K, x1 = 0.7697	–	829.1 ± 0.4
[1], 291.15 K, x1 = 0.8208	–	842.2 ± 0.4
[1], 291.15 K, x1 = 0.8835	–	858.4 ± 0.4
[1], 291.15 K, x1 = 0.9247	–	869.3 ± 0.4
[1], 291.15 K, x1 = 1	–	889.6 ± 0.2
[1], 298.15 K, x1 = 0.0175	–	658 ± 0.3
[1], 298.15 K, x1 = 0.035	–	661.2 ± 0.3
[1], 298.15 K, x1 = 0.0831	–	670.3 ± 0.3
[1], 298.15 K, x1 = 0.1535	–	683.9 ± 0.3
[1], 298.15 K, x1 = 0.2218	–	697.6 ± 0.3
[1], 298.15 K, x1 = 0.2836	–	710.3 ± 0.3
[1], 298.15 K, x1 = 0.3539	–	724.9 ± 0.3
[1], 298.15 K, x1 = 0.4197	–	739.4 ± 0.3
[1], 298.15 K, x1 = 0.4795	–	752.7 ± 0.3
[1], 298.15 K, x1 = 0.5417	–	766.9 ± 0.3
[1], 298.15 K, x1 = 0.604	–	781.5 ± 0.3
[1], 298.15 K, x1 = 0.6583	–	794.5 ± 0.3
[1], 298.15 K, x1 = 0.7242	–	810.6 ± 0.3
[1], 298.15 K, x1 = 0.7772	–	823.9 ± 0.4
[1], 298.15 K, x1 = 0.8357	–	838.9 ± 0.4
[1], 298.15 K, x1 = 0.8934	–	853.9 ± 0.4
[1], 298.15 K, x1 = 0.9187	–	860.5 ± 0.4
[1], 298.15 K, x1 = 0.9749	–	875.7 ± 0.4
[1], 298.15 K, x1 = 1	–	882.5 ± 0.2
[1], 318.15 K, x1 = 0.0304	–	641.7 ± 0.3
[1], 318.15 K, x1 = 0.0796	–	650.7 ± 0.3
[1], 318.15 K, x1 = 0.1381	–	661.7 ± 0.3
[1], 318.15 K, x1 = 0.2079	–	675.3 ± 0.3
[1], 318.15 K, x1 = 0.2642	–	686.6 ± 0.3
[1], 318.15 K, x1 = 0.3318	–	700.5 ± 0.3
[1], 318.15 K, x1 = 0.3997	–	714.9 ± 0.3
[1], 318.15 K, x1 = 0.4505	–	725.9 ± 0.3
[1], 318.15 K, x1 = 0.5124	–	739.7 ± 0.3
[1], 318.15 K, x1 = 0.5708	–	752.9 ± 0.3
[1], 318.15 K, x1 = 0.622	–	764.8 ± 0.3
[1], 318.15 K, x1 = 0.6815	–	778.9 ± 0.3
[1], 318.15 K, x1 = 0.7426	–	793.7 ± 0.3
[1], 318.15 K, x1 = 0.7992	–	807.7 ± 0.4
[1], 318.15 K, x1 = 0.8648	–	824.4 ± 0.4
[1], 318.15 K, x1 = 0.9227	–	839.3 ± 0.4
[1], 318.15 K, x1 = 1	–	859.8 ± 0.2
[1], 328.15 K, x1 = 0.0253	–	631.3 ± 0.3
[1], 328.15 K, x1 = 0.0749	–	640.2 ± 0.3
[1], 328.15 K, x1 = 0.1369	–	651.6 ± 0.3
[1], 328.15 K, x1 = 0.2052	–	664.7 ± 0.3
[1], 328.15 K, x1 = 0.2719	–	677.8 ± 0.3
[1], 328.15 K, x1 = 0.3322	–	690.1 ± 0.3
[1], 328.15 K, x1 = 0.3986	–	704 ± 0.3
[1], 328.15 K, x1 = 0.4614	–	717.6 ± 0.3
[1], 328.15 K, x1 = 0.5209	–	730.7 ± 0.3
[1], 328.15 K, x1 = 0.5809	–	744.3 ± 0.3
[1], 328.15 K, x1 = 0.62	–	753.3 ± 0.3
[1], 328.15 K, x1 = 0.6944	–	770.8 ± 0.3
[1], 328.15 K, x1 = 0.7605	–	786.8 ± 0.3
[1], 328.15 K, x1 = 0.8114	–	799.4 ± 0.4
[1], 328.15 K, x1 = 0.8707	–	814.4 ± 0.4
[1], 328.15 K, x1 = 0.9235	–	828 ± 0.4
[1], 328.15 K, x1 = 1	–	848.3 ± 0.2
[2], 291.15 K, x1 = 0.074	0.0657 ± 0.00143	–
[2], 291.15 K, x1 = 0.1514	0.13 ± 0.00167	–
[2], 291.15 K, x1 = 0.2307	0.179 ± 0.00191	–
[2], 291.15 K, x1 = 0.3056	0.2204 ± 0.00215	–
[2], 291.15 K, x1 = 0.3758	0.2481 ± 0.00215	–
[2], 291.15 K, x1 = 0.4417	0.2598 ± 0.00215	–
[2], 291.15 K, x1 = 0.4984	0.2651 ± 0.00215	–
[2], 291.15 K, x1 = 0.5492	0.2605 ± 0.00215	–
[2], 291.15 K, x1 = 0.5528	0.2598 ± 0.00215	–
[2], 291.15 K, x1 = 0.6101	0.2459 ± 0.00215	–
[2], 291.15 K, x1 = 0.6705	0.2275 ± 0.00215	–
[2], 291.15 K, x1 = 0.7361	0.1953 ± 0.00191	–
[2], 291.15 K, x1 = 0.8064	0.157 ± 0.00167	–
[2], 291.15 K, x1 = 0.8762	0.111 ± 0.00143	–
[2], 291.15 K, x1 = 0.9422	0.0588 ± 0.00143	–
[2], 298.15 K, x1 = 0.0319	0.0246 ± 0.00143	–
[2], 298.15 K, x1 = 0.0736	0.0648 ± 0.00143	–
[2], 298.15 K, x1 = 0.145	0.126 ± 0.00167	–
[2], 298.15 K, x1 = 0.2223	0.178 ± 0.00191	–
[2], 298.15 K, x1 = 0.3011	0.2225 ± 0.00215	–
[2], 298.15 K, x1 = 0.366	0.2481 ± 0.00215	–
[2], 298.15 K, x1 = 0.4223	0.2639 ± 0.00215	–
[2], 298.15 K, x1 = 0.503	0.2682 ± 0.00239	–
[2], 298.15 K, x1 = 0.559	0.2615 ± 0.00215	–
[2], 298.15 K, x1 = 0.6073	0.2495 ± 0.00215	–
[2], 298.15 K, x1 = 0.6518	0.234 ± 0.00215	–
[2], 298.15 K, x1 = 0.7091	0.2089 ± 0.00191	–
[2], 298.15 K, x1 = 0.7653	0.177 ± 0.00191	–
[2], 298.15 K, x1 = 0.8334	0.136 ± 0.00167	–
[2], 298.15 K, x1 = 0.8989	0.0899 ± 0.00143	–
[2], 298.15 K, x1 = 0.9494	0.0466 ± 0.00143	–
[2], 318.15 K, x1 = 0.0748	0.0691 ± 0.00143	–
[2], 318.15 K, x1 = 0.1298	0.122 ± 0.00167	–
[2], 318.15 K, x1 = 0.2004	0.176 ± 0.00191	–
[2], 318.15 K, x1 = 0.2777	0.2249 ± 0.00215	–
[2], 318.15 K, x1 = 0.3479	0.2529 ± 0.00215	–
[2], 318.15 K, x1 = 0.4119	0.2674 ± 0.00239	–
[2], 318.15 K, x1 = 0.4746	0.2739 ± 0.00239	–
[2], 318.15 K, x1 = 0.5084	0.2729 ± 0.00239	–
[2], 318.15 K, x1 = 0.5582	0.2694 ± 0.00239	–
[2], 318.15 K, x1 = 0.6039	0.2581 ± 0.00215	–
[2], 318.15 K, x1 = 0.6543	0.2419 ± 0.00215	–
[2], 318.15 K, x1 = 0.7123	0.2185 ± 0.00191	–
[2], 318.15 K, x1 = 0.7753	0.185 ± 0.00191	–
[2], 318.15 K, x1 = 0.8288	0.147 ± 0.00167	–
[2], 318.15 K, x1 = 0.8906	0.0997 ± 0.00143	–
[2], 318.15 K, x1 = 0.9452	0.0535 ± 0.00143	–
